Assay results as given in patent publication EP0039265A1, “Medicine containing a biflavanone compound” (SCIENCE UNION ET Cie SOCIETE FRANCAISE DE RECHERCHE MEDICALE, priority 1980, dated 1981).

How the values were obtained:
[1] = target: T1, aldose-réductase extraite de cristallins de rats (Rattus norvegicus, UniProt P07943); assay: Aldose reductase inhibition in vitro (NADPH disappearance); type: biochemical; details: rat lens enzyme, pH 7, 25°C, 10 min preincubation, substrate aldéhyde d-glycérique; read-out: inhibition à 50 %
T1 construct: l'aldose-réductase extraite de cristallins de rats; from tissue; host or cells: rat lens (CD River rats)
Procedure: L'activité inhibitrice d'aldose-réductase des composés de la présente invention a été mise en évidence par des essais in vitro sur l'aldose-réductase […] selon la technique […] et J.H. KINOSHITA, J. Biol. Chem. 240 (1965) 877, […] et J.H. KINOSHITA, Biochemical Pharmacolo- gy 5 (1976) 2505-2613. : La biflavanone (I), mise en suspension dans du tampon pH 7, est placée en incubation à 25°C dans un […] bouché contenant l'aldose-réductase […] CD River. Après 10 mn de contact, le substrat ([…] introduit dans la cuve deré- action. La cinétique enzymatique est appréciée par la disparition, du milieu, du co-facteur Ac. Nicotinamide-adénine diphosphorique réduite (NADPH) selon la réaction : [drawing 6] On calcule l'activité enzymatique par détermination de la quantité de NADPH disparue. Les résultats sont exprimés en pourcentage de l'activité enzymatique de la préparation en l'absence de tout inhibiteur. Dans ces conditions on peut déterminer, par exemple, la dose minimale qui inhibe à 50 % l'activité enzymatique.

[2] = High-dose toxicity, intraperitoneal administration, rat; details: in vivo, ip, rat Sprague Dawley, male, read-out: dose maximale toujours tolérée
Procedure: Elle a été déterminée sur des groupes homogènes de souris Swiss et NMRI mâles, de race pure, pesant de 19 à 22 g et sur des groupes homogènes de rats Sprague Dawley màles adultes d'un poids moyen de 300 g..
En administration intrapéritonéale, aussi bien chez le rat que chez la souris, la dose maximale toujours tolérée est supérieure à 3 et 4.000 mg/kg.

[3] = system: perméabilité des parois des vaisseaux sanguins; assay: Ambrose and De Eds method: time of appearance of Trypan blue at chloroform-irritated skin; type: in vivo, lapin; details: voie orale, suspension, rabbit, maximum of activity about 6 to 7 h after administration
Procedure: Nous avons utilisé une méthode dérivée de celle décrite par AMBROSE et DE EDS [J. Pharm. Exp. Ther. 90, 359 (1947)] . Un lapin mâle fauve, d'un poids compris entre 2,0 et 2,5 kg, est épilé sur toute la région ventrale à l'aide d'une pâte au sulfure de baryum. Le lendemain l'animal reçoit, en injection intraveineuse 25mg/kg d'une'solution aqueuse de Bleu Trypan à 1 p. 100. Trente minutes après cette injection,on applique pendant 30 secondes un tampon de coton de 1,2 cm de côté, imbibé de chloroforme, en deux ou trois points de la zone êpi- lée, et on note le temps d'apparition de la couleur bleue.
Ce temps doit être sensiblement constant quel que soit le point d'application du tampon et traduit la plus ou moins grande rapidité avec laquelle le colorant quitte le courant sanguin pour imprégner les tissus sous-cutanés.
Le produit à tester est alors aussitôt administré soit par voie intra-péritonéale, soit par voie orale. L'agent irritant est appliqué de nouveau, à des intervalles de quinze minutes, en d'autres points de la zone épilée : on note à chaque fois le temps d'apparition de la coloration bleue.
On opère en principe sur des lots de sept lapins par dose et par produit. Il est à noter que : • - la réponse à l'agent irritant n'étant pas forcément identique selon le point d'application sur l'abdomen, il faut faire varier systématiquement "les points témoins" et les "points traités" d'un lapin à l'autre; • - il faut toujours considérer le temps d'apparition de la coloration bleue et non le temps de son développement complet; • - au bout d'une heure d'expérience, et à chaque heure ensuite, il faut refaire une injection intraveineuse de Bleu Trypan de 1ml de solution aqueuse à 1 p.100; • - chaque lapin est son propre témoin.
Le protocole opératoire précédent a été utilisé et les doses suivantes ont été administrées : 500 mg et 1.000 mg/kg. La biflavanone (I) a été ingérée sous forme de solution aqueuse additionnée de 5 % de gomme adragante. Les résultats sont évalués en pourcentage d'augmentation du temps d'apparition de la couleur bleue au niveau du point d'application par rapport au temps de base mesuré avant traitement, et comparés à des substances de référence administrées dans les mêmes conditions catéchine hydrate, hespéridine, quercétine, rutine. Les résultats sont consignés dans le tableau ci-dessous, le maximum d'activité étant obtenu 6 à 7 heures environ après l'administration du produit.

[4] = system: perméabilité des parois des vaisseaux sanguins; assay: Beach and Steinetz method: Trypan blue content of chloroform-irritated skin; type: in vivo, lapin; details: rabbit
From the text: La technique d'AMBROSE et DE EDS a été modifiée afin de mesurer la coloration de la tache selon la technique de BEACH et STEINETZ [(J. Pharm. Expl. Therap. (1961) 131, n° 1, p. 400 à 406)]. Des lapins New-Zealand mâles de 2,5 kg reçoivent une injection IP de produit à tester, ou d'eau gommée pour les témoins.
Trente minutes après, sur la peau abdominale.préalablement épilée, un tampon de chloroforme est appliqué trente secondes, afin de créer une irritation locale qui favorise la diffusion du colorant hors des capillaires vers les liquides interstitiels.
Immédiatement après,une solution de Bleu Trypan à 25mg/kg est injectée dans la veine marginale de l'oreille. Une tache bleue apparait à l'endroit irrité. Le lapin est tué par Einjection intracardiaque de pentobarbital, 30 minutes après l'injection du Bleu Trypan.
Les fragments de peau sont prélevés, posés et laissés à digérer 24 heures dans HCI pur. Le Bleu Trypan est dosé selon la technique de BEACH et STEINETZ.
Après la dissolution complète, l'addition de 3 ml de chlorure de Benzalkonium en solution aqueuse à 12,80 % complexe le colorant qui est ensuite repris par 5 ml de chloroforme. Après centrifugation, la phase chloroformique bleue est rapidement soutirée et filtrée, la lecture spectrophotométrique est faite immédiatement afin d'éviter une concentration du colorant par évaporation du chloroforme. Les densités optiques à 620 mn sont traduites en µg de bleu/100 mg de tissu.
Le protocole opératoire précédent a été utilisé et les doses 200 et 400 mg ont été administrées. Les résultats, exprimés en ng de colorant par 100 g de peau fraiche sont donnés dans le tableau suivant : […]

perméabilité capillaire = assay: Lefebvre technique: appearance of a dye at an intradermal histamine injection site; type: in vivo; details: intraperitoneal 100 mg/kg, rat
Procedure: D'autres tests, utilisés chez le rat, ont confirmé les possibilités de la biflavanone dans la diminution de la perméabilité capillaire par rapport aux produits de référence classiques, et notamment les tests réalisés selon la technique de […]. Soc. Biol. 1, 183 (1962)] qui consiste à observer l'apparition d'un colorant au niveau d'une injection intradermique d'histamine. Il a été constaté que l'infection intrapéritonéale de 100 mg/kg de biflavanone (I) […]'apparition de la coloration de 70 % . La rutine a la même dose ne provoque qu'un retard de 12 %

résistance capillaire = assay: Parrot method: capillary resistance under vitamin P-deficient diet; type: in vivo; details: injection of 50 mg/kg; cobaye; mean of 10 animals; measured 3 to 48 h after administration
From the text: Pour mettre en évidence l'action sur la résistance capillaire, nous avons utilisé […]. PARROT et coll. [C.R. Soc. Biol. 140 750 (1946)]. Elle consiste à étudier les variations de la résistance capillaire chez le cobaye soumis à un […] vitaminique P(C2), mais équilibré en vitamine C. La résistance capillaire est mesurée au niveau de la région lombaire en appliquant sur la peau, préalablement épilée, une ventouse de verre de 5 mm de diamètre. On détermine la valeur de la dépression, exprimée en cm de mercure; qu'il faut réaliser pour […], au bout de 50 secondes environ, 3 […] sur la surface entourée. Cette dépression […] comprise entre 25 et 35 cm de mercure, mais elle chute à 10 cm de Hg chez les animaux soumis au […]é pendant 10 jours. […] L'élévation de la résistance capillaire et sa durée sont […]- quement par la valeur de la surface obtenue en portant sur un système de coordonné[…]. On a constaté […] surface est de 20,8 cm ^2 après injection de 50 mg/kg de biflavanone (I), […] que la même dose de rutine ne donne que 6,42 cm^2.

[5] = I.P. 200 mg/kg, eau gommée control 4,62 ± 1,4
[6] = I.P. 400 mg/kg, eau gommée control 5,01 ± 2,3

SMILES | IC50 [1] [nM] | Augmentation % du temps d'apparition par rapport au temps témoin ([3]; 1.000 mg/kg) [%] | Augmentation % du temps d'apparition par rapport au temps témoin ([3]; 500 mg/kg) [%] | also measured
O=C(O)CN1C(=O)c2cccc3cccc(c23)C1=O [Alrestatine, alrestatine] | 1000 |  |  | 
O=C1c2c(O)cc(O)c(C3C(=O)c4c(O)cc(O)cc4OC3c3ccc(O)c(O)c3)c2OC(c2ccc(O)c(O)c2)C1O (stereo not drawn) [Biflavanone (I), manniflavone] | 100 to 250 | 125 | 50 | MTD [2]: > 3 mg/kg; CON[…] BLEU TRYPAN [4, 5]: 4 ± 2,3 µg/100 g DE PEAU; CON[…] BLEU TRYPAN [4, 6]: 3,1 ± 2,3 µg/100 g DE PEAU; retard de l'apparition de la coloration (perméabilité capillaire): 70%; surface (élévation de la résistance capillaire et sa durée, planimétrie) (résistance capillaire): 20,8 cm^2
Oc1cc(O)c2c(c1)O[C@H](c1ccc(O)c(O)c1)[C@@H](O)C2 [Catéchine hydrate] |  | 50 | 38 | 
COc1ccc(-c2cc(=O)c3c(O)cc(O[C@@H]4O[C@H](CO[C@@H]5O[C@@H](C)[C@H](O)[C@@H](O)[C@H]5O)[C@@H](O)[C@H](O)[C@H]4O)cc3o2)cc1O [Diosmine, diosmine] | 50000 to 100000 |  |  | CONCENTRATION DU BLEU TRYPAN [4, 5]: 2,66 ± 2 µg/100 g DE PEAU; CONCENTRATION DU BLEU TRYPAN [4, 6]: 2,50 ±1,6 µg/100 g DE PEAU
COc1ccc([C@@H]2CC(=O)c3c(O)cc(O[C@@H]4O[C@H](CO[C@@H]5O[C@@H](C)[C@H](O)[C@@H](O)[C@H]5O)[C@@H](O)[C@H](O)[C@H]4O)cc3O2)cc1O [Hespé-ridine, hespéridine] |  | 0 | 0 | 
O=c1c(O)c(-c2ccc(O)c(O)c2)oc2cc(O)cc(O)c12 [Quercé-tine, quercétine] |  | 0 | 0 | 
C[C@@H]1O[C@@H](OC[C@H]2O[C@@H](Oc3c(-c4ccc(O)c(O)c4)oc4cc(O)cc(O)c4c3=O)[C@H](O)[C@@H](O)[C@@H]2O)[C@H](O)[C@H](O)[C@H]1O [Rutine, rutine] |  | 77 | 27 | CONCENTRATION DU BLEU TRYPAN [4, 5]: 3,6 ± 1,8 µg/100 g DE PEAU; CONCENTRATION DU BLEU TRYPAN [4, 6]: 3,2 ± 2 µg/100 g DE PEAU; retard de l'apparition de la coloration (perméabilité capillaire): 12%; surface (élévation de la résistance capillaire et sa durée, planimétrie) (résistance capillaire): 6,42 cm^2
